# Measurements taken from patent publication US10711011B2, “Substituted oxazolidines as anti-bacterial agents” (BUGWORKS RESEARCH, INC., priority 2016, dated 2020).
# Read-outs that look alike come from different tables or passages of the source.
# Experiments:
# [1] = Mouse intravenous pharmacokinetics; assay type: in vivo, BALB/c mice; conditions: 2 mg/kg
# Experimental: (§1) To assess the Oral and Intravenous pharmacokinetic profile of Example 13, pharmacokinetics (PK) of Example 13 was characterized in BALB/c mice following single intravenous (i.v.) dose of 2 mg/kg and single escalating oral doses of 2, 10, 50 and 100 mg/kg, respectively. This study was performed following all ethical practices as laid down in the guidelines for animal care (Registration number No. 1852/PO/Rc/S/16/CPCSEA). The study was approved by the Institutional Animals Ethics Committee (IAEC) of the test facility. For IVPK in BALB/c mice, the formulation used was DMSO: PEG400: Ethanol: Water (10:20:10:60 v/v) and Example 13 administered as solution. For POPK, the formulation used was 0.1% Tween80 in 0.25% CMC and Example 13 administered as suspension through an oral gavage. The plasma (mice) samples were analyzed by LC-MS/MS. PK parameters were estimated by non-compartmental analysis in Phoenix WinNonlin 6.4 The results of the per-oral and intravenous PK study of Example 13 are presented in Table 4 and 5
# [2] = Mouse oral pharmacokinetics; assay type: in vivo, BALB/c mice; design: AUC/Dose: unit not given beside the values; conditions: for Cmax/dose: in (µg/mL)/(mg/kg)
# Experimental: as §1
# A. baumannii ATCC 19606 = assay: Minimum Inhibitory Concentration (MIC) in LB media; assay type: cell-based, Acinetobacter baumannii; conditions: Acinetobacter baumannii, ATCC19606, LB Media
# Text: The compounds of Formula I are of interest due to their potent antibacterial effects. The ability of the invention compounds disclosed herein to achieve an antibacterial effect may be evaluated with regard to their ability to inhibit the growth of bacterial species like Escherichia coli ATCC 25922, Staphylococcus aureus ATCC 29213, Klebsiella pneumoniae ATCC 13883, Acinetobacter baumannii ATCC 19606, Pseudomonas aurigenosa ATCC 27853, Enterococcus faecalis ATCC 29212 and Enterococcus faecalis ATCC 29212 using an assay based on the following Minimum Inhibitory Concentration (MIC) protocol:
# The test bacteria are grown in Luria Bertani Broth (HIMEDIA M1245), 25 grams of the powder is dissolved in 1000 ml distilled water and sterilized by autoclaving at 15 lbs pressure (121° C.) for 20 minutes. The medium sterility is checked by incubating at 37° C. for a period of 48 h.
# Bacterial cultures that are stored as glycerol stocks at −80° C. are sub cultured on LB agar plates to obtain isolated colonies. A single colony of each strain is cultured in LB broth. The cultures are incubated at 37° C., 200 rpm till they reach an optical density (OD at 600 nm) of 0.8 to 1. […] Test compounds are dissolved in dimethyl sulfoxide (DMSO) to a stock concentration of 4 mg/ml. A twofold dilution series of this DMSO stock is prepared in a 96 well V bottom microtitre plate from rows A to H. A 3 μL volume of these dilutions are transferred to a 96-well flat bottom microtitre assay plate. Controls to monitor the effects of DMSO and media sterility are included. Each well is inoculated with 150 μL of the above diluted culture. The plates are incubated at 37° C. overnight in a humidified incubator. The following morning, the plates are read using a Spectrophotometer at 600 nm wavelength. […] The antibacterial activity (MIC) determined against representative Gram positive (S. aureus, E. faecalis) and Gram negative (E. coli, P. aurigenosa, K. pneumoniae and A. baumannii) pathogen were reported Table 1.
# [3] = BALB/c, mouse, plasma, iv, mice
# [4] = BALB/c, mouse, plasma, mice, single oral dose 2 mg/kg
# [5] = BALB/c, mouse, plasma, mice, single oral dose 10 mg/kg
# [6] = BALB/c, mouse, plasma, mice, single oral dose 50 mg/kg
# [7] = BALB/c, mouse, plasma, mice, single oral dose 100 mg/kg
# [8] = mice, single oral dose 10 mg/kg
# [9] = mice, single oral dose 50 mg/kg
# [10] = mice, single oral dose 100 mg/kg
compound,measurement,setting,value
"CN1C(=O)Cc2ccc(F)c(CCNCCC3CN(c4ccc5c(n4)NC(=O)CO5)C(=O)O3)c21 (single isomer, unassigned) [Example 13, 6-(5-(2-((2-(6-fluoro-1-methyl-2-oxoindolin-7-yl)ethyl)amino)ethyl)-2-oxooxazolidin-3-yl)-2H-pyrido[3,2-b][1,4]oxazin-3(4H)-one]",clearance,"[1]; BALB/c, mouse, plasma, iv, BALB/c mice, single i.v. dose of 2.0 mg/kg, read-out: systemic clearance (converted)",95 mL/min/kg
same,Vd,"[1]; BALB/c, mouse, plasma, iv, BALB/c mice, single i.v. dose of 2.0 mg/kg, read-out: volume of distribution at steady state",13.3 L/kg
same,half-life,[1]; [3],1.7 h
same,clearance,"[1]; BALB/c, mouse, plasma, iv, mice, i.v., read-out: CL (converted)",94.8 mL/min/kg
same,Vd,"[1]; BALB/c, mouse, plasma, iv, mice, i.v., read-out: Vss",13.3 L/kg
same,AUC(0-inf),[1]; [3],352 ng·h/mL
same,AUC(0-t),[1]; [3],352 ng·h/mL
same,AUC (% Extrap),"[1]; mice, i.v.",0.002%
same,Ke,"[1]; mice, i.v.",0.403 h⁻¹
same,t1/2,"[1]; mice, i.v.",1.718 h
same,Cmax,"[2]; BALB/c, mouse, plasma, po, 2 mg/kg, mice, single oral dose 2 mg/kg",6 ng/mL
same,AUC(0-inf),"[2]; BALB/c, mouse, plasma, po, 2 mg/kg, mice, single oral dose 2 mg/kg, read-out: AUC0-∞",70 ng·h/mL
same,half-life,"[2]; BALB/c, mouse, plasma, po, 2 mg/kg, mice, single oral dose 2 mg/kg, read-out: t1/2 (converted)",5.63 h
same,Cmax,"[2]; BALB/c, mouse, plasma, po, 10 mg/kg, mice, single oral dose 10 mg/kg",108 ng/mL
same,AUC(0-inf),"[2]; BALB/c, mouse, plasma, po, 10 mg/kg, mice, single oral dose 10 mg/kg, read-out: AUC0-∞",335 ng·h/mL
same,half-life,"[2]; BALB/c, mouse, plasma, po, 10 mg/kg, mice, single oral dose 10 mg/kg, read-out: t1/2 (converted)",2.13 h
same,Cmax,"[2]; BALB/c, mouse, plasma, po, 50 mg/kg, mice, single oral dose 50 mg/kg",740 ng/mL
same,AUC(0-inf),"[2]; BALB/c, mouse, plasma, po, 50 mg/kg, mice, single oral dose 50 mg/kg, read-out: AUC0-∞",1970 ng·h/mL
same,half-life,"[2]; BALB/c, mouse, plasma, po, 50 mg/kg, mice, single oral dose 50 mg/kg, read-out: t1/2 (converted)",1.6 h
same,AUC(0-inf),"[2]; BALB/c, mouse, plasma, po, 100 mg/kg, BALB/c mice, single oral doses of 2, 10, 50 and 100 mg/kg, read-out: AUC0-∞, range over oral doses",70 to 4820 ng·h/mL
same,Clast,"[2]; BALB/c, mouse, plasma, po, 100 mg/kg, BALB/c mice, single oral doses of 2, 10, 50 and 100 mg/kg, read-out: Cmax, range over oral doses",4 to 72 ng/mL
same,half-life,"[2]; BALB/c, mouse, plasma, po, 100 mg/kg, BALB/c mice, single oral doses of 2, 10, 50 and 100 mg/kg, read-out: t1/2, range over oral doses",1.4 to 5.6 h
same,Cmax,"[2]; BALB/c, mouse, plasma, po, 100 mg/kg, mice, single oral dose 100 mg/kg",2380 ng/mL
same,AUC(0-inf),"[2]; BALB/c, mouse, plasma, po, 100 mg/kg, mice, single oral dose 100 mg/kg, read-out: AUC0-∞",4820 ng·h/mL
same,half-life,"[2]; BALB/c, mouse, plasma, po, 100 mg/kg, mice, single oral dose 100 mg/kg, read-out: t1/2 (converted)",1.42 h
same,AUC(0-t),[2]; [4],70 ng·h/mL
same,Tmax,[2]; [4],1 h
same,concentration at 24 h,"[2]; BALB/c, mouse, plasma, mice, single oral dose 2 mg/kg, read-out: Clast",4 ng/mL
same,AUC(0-t),[2]; [5],311 ng·h/mL
same,Tmax,[2]; [5],0.5 h
same,concentration at 8 h,"[2]; BALB/c, mouse, plasma, mice, single oral dose 10 mg/kg, read-out: Clast",9 ng/mL
same,AUC(0-t),[2]; [6],1900 ng·h/mL
same,Tmax,[2]; [6],0.5 h
same,concentration at 8 h,"[2]; BALB/c, mouse, plasma, mice, single oral dose 50 mg/kg, read-out: Clast",28 ng/mL
same,AUC(0-t),[2]; [7],4700 ng·h/mL
same,Tmax,[2]; [7],1 h
same,concentration at 8 h,"[2]; BALB/c, mouse, plasma, mice, single oral dose 100 mg/kg, read-out: Clast",72 ng/mL
same,AUC/Dose,"[2]; mice, single oral dose 2 mg/kg",0.036
same,F,"[2]; mice, single oral dose 2 mg/kg",20.6%
same,Ke,"[2]; mice, single oral dose 2 mg/kg",0.123 h⁻¹
same,Tlast,"[2]; mice, single oral dose 2 mg/kg",24 h
same,Cmax/dose,"[2]; mice, single oral dose 2 mg/kg",0.003
same,AUC/Dose,[2]; [8],0.034
same,F,[2]; [8],19.0%
same,Ke,[2]; [8],0.325 h⁻¹
same,Tlast,[2]; [8],8 h
same,Cmax/dose,[2]; [8],0.011
same,AUC/Dose,[2]; [9],0.039
same,F,[2]; [9],22.3%
same,Ke,[2]; [9],0.433 h⁻¹
same,Tlast,[2]; [9],8 h
same,Cmax/dose,[2]; [9],0.015
same,AUC/Dose,[2]; [10],0.048
same,F,[2]; [10],27.4%
same,Ke,[2]; [10],0.489 h⁻¹
same,Tlast,[2]; [10],8 h
same,Cmax/dose,[2]; [10],0.024
same,bioavailability,"[2]; mouse, plasma, BALB/c mice, single oral doses of 2, 10, 50 and 100 mg/kg, read-out: oral bioavailability, range over oral doses",19 to 27%
same,MIC,A. baumannii ATCC 19606,0.06 µg/mL
